Assay results reported in patent publication US10905651B1, “Zeinmersome nanocarriers for drug delivery to the liver” (King Abdulaziz University, priority 2020, dated 2021).

Experiments:
[1] = In vitro diffusion studies (Franz diffusion cell); type: physicochemical; settings: within a 4-hour time period; 0.1 μm nylon membrane, buffer pH 7.0 with Tween 20 0.5% w/v
Description: The formula characterization was assessed by examining its diffusion pattern. An automated Franz diffusion cell apparatus (MicroettePlus; Hanson Research, Chatsworth, Calif., US) with a diffusion area of 1.76 cm^2 was utilized to examine the diffusion of OM from the prepared formula as described previously (Ahmed et al., 2019. Internat J Pharmaceu 570: 118657). A 0.1 μm nylon diffusion membrane and a buffer (pH 7.0) containing Tween 20 (0.5% w/v) were used, and this was stirred at 400 rpm. The aliquots were analyzed for OM concentration by HPLC as previously reported. The samples were collected at 0.5, 1, 2, 4, 8, 12, 24 and 48 h.

[2] = test system: TAA-induced hepatic fibrosis rats; assay: Inflammatory and oxidative markers in liver homogenate of TAA-induced hepatic fibrosis rats; type: in vivo, rat; settings: two months; for IL-6 level in liver homogenate (reversal of TAA-induced increase): FIG. 5A; for TNF-α level in liver homogenate (reversal of TAA-induced increase): FIG. 5B; for MDA level in liver homogenate (reversal of TAA-induced increase): FIG. 6A; for GSH level in liver homogenate (reversal of TAA-induced decrease): FIG. 6B
Description: Rats were given freshly prepared TAA (0.9% w/v in saline solution, 200 mg/kg, ip) twice weekly for eight weeks. A normal control (NC) group of rats (n=8) received injections of the vehicle twice weekly for eight weeks. The TAA-treated rats were randomly assigned to groups (n=8), including a test group for each dosage of a free drug (not encapsulated in ZMS), each dosage of zeinmersomes encapsulating the drug, and a positive control group (PC) having hepatic fibrosis but receiving a vehicle-only treatment instead of a drug treatment. Five groups of rats (n=8) were given freshly prepared TAA (0.9% w/v in saline solution, 200 mg/kg, ip) twice weekly for eight weeks and a normal control (NC) group received vehicle injections, as described in Example 4. The five TAA groups included a positive control group (PC, untreated) and four groups treated with low and high doses (2 and 4 mg/kg/day) of OM as raw drug (OL & OH, respectively) and the same low and high doses (2 and 4 mg/kg/day) of OM formulated as zeinmersomes (OLZMS & OHZMS, respectively). The OM standard drug was suspended in distilled water containing 0.25% w/v carboxymethyl cellulose. The doses were given by oral gavage once daily for two months. […] At the end of treatment duration, blood samples were withdrawn from the retro-orbital plexus of the rats under light ether anesthesia. Plasma was separated and kept at −80° C. until analysis. Then, the rats were sacrificed by cervical dislocation under ether anesthesia. Liver and duodenum were isolated and parts of each were kept in 10% formalin-saline for histopathological examination. Other portions of liver tissue were homogenized. The plasma levels of ALT and AST and the homogenate levels of IL-6, reduced glutathione (GSH), TNF-α, malondialdehyde (MDA), and protein content were measured using ELISA kits (MyBioSource, Inc. CA, USA). In addition, the concentrations of olmesartan in plasma and liver homogenate were measured by HPLC/MS. A part of the liver of each animal was rapidly dissected out, washed, and homogenized in phosphate-buffered saline (0.01M PBS, pH 7.4) using a TissueLyser II (Qiagen; Venlo, Netherlands) at 4° C. to produce a 10% homogenate. The homogenates were centrifugated at 10000 rpm for 15 min at 4° C. and the supernatant was kept at −80° C. till time of analysis. The levels of TNF-α, IL-6, malondialdehyde (MDA), and reduced glutathione (GSH) were measured by the ELISA kits using a micro plate reader (Versa Max, Molecular Devices). The protein content in the liver homogenate was determined by using a colorimetric kit based on Bradford method (Bradford 1976) and the levels of IL-6, TNF-α, GSH, and MDA were expressed/mg protein. The IL-6 level was measured by using the competitive enzyme immunoassay technique utilizing a polyclonal anti-IL-6 antibody and an IL-6-HRP conjugate. The assay sample and buffer were incubated together with IL-6-HRP conjugate in pre-coated plate for one hour. After washing, the wells were then incubated with a substrate for HRP enzyme. The product of the enzyme-substrate reaction formed a blue colored complex. Finally, a stop solution was added to stop the reaction, which then turned the solution yellow. Absorbance was read at 450 nm in a microplate reader. The TNF-α level was measured by using the principle of double antibody sandwich ELISA technique is used. Anti-TNF-α antibody was pre-coated on the wells. Add biotin labeled anti-TNF-α antibodies to combine with the antigens on immune complexes. Avidin-Biotin-Peroxidase Complex was added, and unbound conjugates were washed away with wash buffer. TMB substrates were used to visualize HRP enzymatic reaction producing a blue color product that changed into yellow after adding acidic stop solution. The density of yellow is proportional to TNF-α amount of sample captured in plate. Absorbance was read at 450 nm. The GSH level was measured by using the principle of double antibody sandwich ELISA technique. Anti-GSH antibody was pre-coated on the wells. […]

[3] = cited from earlier work
[4] = test system: bile duct-ligated fibrotic rats; settings: 1 mg/kg/day orally; cited from earlier work

For CCCc1nc(C(C)(C)O)c(C(=O)OCc2oc(=O)oc2C)n1Cc1ccc(-c2ccccc2-c2nnn[nH]2)cc1 [OM, (5-methyl-2-oxo-1,3-dioxol-4-yl)methyl 5-(2-hydroxypropan-2-yl)-2-propyl-3-[[4-[2-(2H-tetrazol-5-yl)phenyl]phenyl]methyl]imidazole-4-carboxylate], the “diffusion of OM (percentage permeated)” value [1] was about 97.5±13.07%, the “IL-6 level in liver homogenate (reversal of TAA-induced increase)” value ([2]; high dose 4 mg/kg/day oral) was “significantly reversed” and the “TNF-α level in liver homogenate (reversal of TAA-induced increase)” value ([2]; high dose 4 mg/kg/day oral) was “significantly reversed”. The “MDA level in liver homogenate (reversal of TAA-induced increase)” value ([2]; high dose 4 mg/kg/day oral) was “significantly reversed”, the “GSH level in liver homogenate (reversal of TAA-induced decrease)” value ([2]; high dose 4 mg/kg/day oral) was “significantly reversed” and the “IL-6 level in liver homogenate (reversal of TAA-induced increase)” value ([2]; low dose 2 mg/kg/day oral) was “All treatments except for OL significantly reversed”. The “TNF-α level in liver homogenate (reversal of TAA-induced increase)” value ([2]; low dose 2 mg/kg/day oral) was “All treatments except for OL significantly reversed”, the “MDA level in liver homogenate (reversal of TAA-induced increase)” value ([2]; low dose 2 mg/kg/day oral) was “All treatments except for OL significantly reversed” and the “GSH level in liver homogenate (reversal of TAA-induced decrease)” value ([2]; low dose 2 mg/kg/day oral) was “All treatments except for OL significantly reversed”. For the same molecule, the drug accumulation ([3]; OM once daily for 10 days) was “did not result in drug accumulation”, the “dose at which safe and well tolerated” value ([3]; Schwocho et al. 2001) was “up to 160 mg/day” and the “time for plasma olmesartan to approach steady state” value ([3]; treatment with OM) was 5 days. For the same molecule, the “liver hydroxyproline content, mRNA expression of collagen, α-smooth muscle actin, and plasma levels of TGF-β” value [4] was “significantly reduced”.
